Laboratory results from publication PMC8092523 (Antimicrobial Agents and Chemotherapy, 2021).

Key:
pYL42 and pYL53 strains = format: cell-based, Mycobacterium smegmatis
[1] = system: mc^27000:Δc− strain with pYL60 or pYL3; format: cell-based, M. tuberculosis

## CN[C@@H]1[C@H](O)[C@H](NC)[C@H]2O[C@]3(O)[C@H](O[C@@H]2[C@H]1O)O[C@H](C)C[C@H]3NC(=O)Cc1ccc(Cl)cn1 [Spa]
pYL42 and pYL53 strains
  bactericidal activity against pYL53 compared with pYL42 strain: at least an order of magnitude lower
[1]
  bactericidal activity against pYL60 strain compared with pYL3 control strain: significantly decreased
